Read-outs that look alike come from different tables or passages of the source.

The target of one test is KRAS G12C (Homo sapiens, UniProt P01116+P62937, G12C). As to the kind of experiment: Disruption of BRAF RBD interaction with K-Ras (FRET / MOA assay). Format: biochemical. How it is done: (§1) Compound is present in plate wells as a 10-point 3-fold dilution series starting at a final concentration of 30 μM. […] Compounds that facilitate disruption of a Ras:RAF complex are identified as those eliciting a decrease in the TR-FRET ratio relative to DMSO control wells.
(§2) Note—The following protocol describes a procedure for monitoring disruption of K-Ras G12C (GMP-PNP) binding to BRAF^RBD by a compound of the invention. This protocol may also be executed substituting other Ras proteins or nucleotides.
(§3) The purpose of this biochemical assay was to measure the ability of test compounds to facilitate ternary complex formation between a nucleotide-loaded K-Ras isoform and Cyclophilin A; the resulting ternary complex disrupts binding to a BRAF^RBD construct, inhibiting K-Ras signaling through a RAF effector. Data is reported as IC50 values.
(§4) Compound was present in plate wells as a 10-point 3-fold dilution series starting at a final concentration of 30 μM. […] Compounds that facilitate disruption of a K-Ras:RAF complex were identified as those eliciting a decrease in the TR-FRET ratio relative to DMSO control wells.

The target of a further test is KRAS Q61H (Homo sapiens, UniProt P01116+P62937, Q61H). The test is described as above. The test is classed as biochemical. Conditions: read-out: KRAS Q61H FRET data IC50. How it is done:
as §1, §2, §3, §4

Another test addresses NRAS Q61K (Homo sapiens, UniProt P01111+P62937, Q61K). Nature of the test: Disruption of BRAF RBD interaction with Ras (FRET / MOA assay). Format: biochemical. Conditions: read-out: NRAS Q61K FRET data IC50. How it is done: as §1, §2, §3, §4
Another test concerns the target NRAS Q61R (Homo sapiens, UniProt P01111+P62937, Q61R). The test is described as above. Format: biochemical. Conditions: read-out: NRAS Q61R FRET data IC50. How it is done:
as §1, §2, §3, §4

A further test addresses NRAS WT (Homo sapiens, UniProt P01111+P62937). Described as above. Conditions: read-out: NRAS WT FRET data IC50. The test is classed as biochemical. How it is done:
as §1, §2, §3, §4

The subject of another test is NCI-H358 (K-Ras G12C). As to the kind of experiment: CellTiter-Glo Cell Viability Assay. As to conditions: Homo sapiens, NCI-H358, 120 h; H358, 5-day treatment. The test is classed as cell-based. How it is done:
Determination of Cell Viability in RAS Mutant Cancer Cell Lines
Protocol: CellTiter-Glo® Cell Viability Assay
Note—The following protocol describes a procedure for monitoring cell viability of K-Ras mutant cancer cell lines in response to a compound of the invention. Other RAS isoforms may be employed, though the number of cells to be seeded will vary based on cell line used.
Test compounds (132.5 nl) were directly dispensed into the assay plates containing cells. […] On day 5, assay plates and their contents were equilibrated to room temperature for approximately 30 minutes. […] Luminescence was measured using the PerkinElmer Enspire. Data were normalized by the following: (Sample signal/Avg. DMSO)*100. The data were fit using a four-parameter logistic fit.
In general terms: Cellular ATP, detected with luciferase, serves as a proxy for viable cell number.

[1] abbreviates: read-out: KRAS G12C FRET data IC50.

Chain of KRAS Q61H (P01116 1-188 isoform P01116-2 Q61H): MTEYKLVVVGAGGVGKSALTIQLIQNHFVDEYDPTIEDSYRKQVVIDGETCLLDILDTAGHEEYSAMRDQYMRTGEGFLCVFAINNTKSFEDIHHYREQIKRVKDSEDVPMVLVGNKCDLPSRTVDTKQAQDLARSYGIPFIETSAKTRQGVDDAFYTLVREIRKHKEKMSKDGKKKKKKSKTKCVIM
Chain of KRAS Q61H (P62937 whole entry): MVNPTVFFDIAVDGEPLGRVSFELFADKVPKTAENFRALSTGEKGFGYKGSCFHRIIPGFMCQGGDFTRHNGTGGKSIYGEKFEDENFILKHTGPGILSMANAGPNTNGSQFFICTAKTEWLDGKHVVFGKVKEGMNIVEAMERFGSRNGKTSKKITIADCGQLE
Chain of KRAS G12C (P01116 1-188 isoform P01116-2 G12C): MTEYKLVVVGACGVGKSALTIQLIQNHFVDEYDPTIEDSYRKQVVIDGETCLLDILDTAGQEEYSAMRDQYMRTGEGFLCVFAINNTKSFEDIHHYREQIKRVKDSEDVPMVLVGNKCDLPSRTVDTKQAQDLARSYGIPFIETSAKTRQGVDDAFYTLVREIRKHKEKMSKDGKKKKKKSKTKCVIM
Chain of KRAS G12C (P62937 whole entry): as the sequence (P62937 whole entry) above
Chain of NRAS Q61R (P01111 whole entry Q61R): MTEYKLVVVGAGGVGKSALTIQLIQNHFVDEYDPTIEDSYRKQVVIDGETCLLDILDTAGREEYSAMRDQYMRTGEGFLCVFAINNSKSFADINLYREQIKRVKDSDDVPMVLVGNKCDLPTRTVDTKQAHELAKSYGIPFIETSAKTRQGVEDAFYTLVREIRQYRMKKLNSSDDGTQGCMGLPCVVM
Chain of NRAS Q61R (P62937 whole entry): as the sequence (P62937 whole entry) above
Chain of NRAS Q61K (P01111 whole entry Q61K): as the sequence (P01111 whole entry Q61R) above, with R61K counted along it
Chain of NRAS Q61K (P62937 whole entry): as the sequence (P62937 whole entry) above
Chain of NRAS WT (P01111 whole entry): as the sequence (P01111 whole entry Q61R) above, with R61Q counted along it
Chain of NRAS WT (P62937 whole entry): as the sequence (P62937 whole entry) above

One may read the IC50 as the midpoint of a concentration-inhibition curve. Take `CCn1c(-c2cccnc2[C@H](C)OC)c2c3cc(ccc31)-c1cc(O)cc(c1)C[C@H](NS(=O)(=O)C1CS(=O)(=O)C1)C(=O)N1CCC[C@H](N1)C(=O)OCC(C)(C)C2` (racemic) [Compound A191]: the IC50 on KRAS G12C (setting [1]), on KRAS Q61H, at NRAS Q61K, at NRAS Q61R and at NRAS WT was over 10000 nM in each case.

As for `CCn1c(-c2cccnc2[C@H](C)OC)c2c3cc(ccc31)-c1csc(n1)C[C@H](NC(=O)[C@H](C(C)C)N(C)C(=O)N1C[C@@H]3CCN(C)C[C@@H]31)C(=O)N1CCC[C@H](N1)C(=O)OCC(C)(C)C2` (atropisomer, axis not shown) [Compound A516], on KRAS Q61H, the IC50 was in the range of 1000 to 10000 nM.

As to `CCn1c(-c2cccnc2[C@H](C)OC)c2c3cc(ccc31)-c1csc(n1)C[C@H](NC(=O)[C@H](C(C)C)N(C)C(=O)[C@H]1CCN(S(C)(=O)=O)C1)C(=O)N1CCC[C@H](N1)C(=O)OCC(C)(C)C2` (racemic) [Compound A237], the concentration for half-maximal inhibition (IC50) at KRAS Q61H fell in the range of 1000 to 10000 nM.

For the compound `CCn1c(-c2cccnc2[C@H](C)OC)c2c3cc(ccc31)-c1csc(n1)C[C@H](NC(=O)[C@H](C(C)C)N(C)C(=O)N1CCN3C(=O)CN(C)C[C@@H]3C1)C(=O)N1CCC[C@H](N1)C(=O)OCC(C)(C)C2` (atropisomer, axis not shown) [Compound A536], the results for the half-maximal inhibitory concentration (IC50) on NRAS Q61K, on NRAS Q61R and in the test on NCI-H358 (K-Ras G12C) were 10 to 100 nM, 10 to 100 nM and under 10 nM, respectively.

With `CCn1c(-c2cccnc2[C@H](C)OC)c2c3cc(ccc31)-c1cc(O)cc(c1)C[C@H](NS(=O)(=O)CC1CC1)C(=O)N1CCC[C@H](N1)C(=O)OCC(C)(C)C2` (racemic) [Compound A200], on KRAS G12C (setting [1]), the 50% inhibitory concentration (IC50) is over 10000 nM.

Turning to `CO[C@@H](C)c1ncccc1-c1c2c3cc(ccc3n1C)-c1cc(O)cc(c1)C[C@H](NC(=O)[C@H](C(C)C)N(C)C(C)=O)C(=O)N1CCC[C@H](N1)C(=O)OCC(C)(C)C2` (racemic) [Compound A104], the IC50 is 1000 to 10000 nM on KRAS Q61H and over 10000 nM on NRAS Q61R.

As for `CCn1c(-c2cccnc2[C@H](C)OC)c2c3cc(ccc31)-c1cc(O)cc(c1)C[C@H](NC(=O)[C@H](C(C)C)N(C)C(=O)C1(C(=O)O)CC1)C(=O)N1CCC[C@H](N1)C(=O)OCC(C)(C)C2` (racemic) [Compound A150], the IC50 at KRAS Q61H was 1000 to 10000 nM; on NRAS Q61R, over 10000 nM.

Regarding `CCn1c(-c2cccnc2[C@H](C)OC)c2c3cc(ccc31)-c1cc(cc3nc[nH]c13)C[C@H](NC(=O)[C@H](C(C)C)N(C)C(C)=O)C(=O)N1CCC[C@H](N1)C(=O)OCC(C)(C)C2` (racemic) [Compound A153], at KRAS G12C (setting [1]), the IC50 was over 10000 nM.

For `CCn1c(-c2cccnc2[C@H](C)OC)c2c3cc(ccc31)-c1cc(O)cc(c1)C[C@H](NS(=O)(=O)c1ccc(OC)cc1OC)C(=O)N1CCC[C@H](N1)C(=O)OCC(C)(C)C2` (racemic) [Compound A198], on KRAS G12C, the IC50 is over 10000 nM.

For `CCn1c(-c2cccnc2[C@H](C)OC)c2c3cc(ccc31)-c1cc(O)cc(c1)C[C@H](NS(=O)(=O)c1cn(C)c(C)n1)C(=O)N1CCC[C@H](N1)C(=O)OCC(C)(C)C2` (racemic) [Compound A197], the IC50 at KRAS G12C (setting [1]) is over 10000 nM.

Take `CCn1c(-c2cccnc2[C@H](C)OC)c2c3cc(ccc31)-c1cc(O)cc(c1)C[C@H](NS(=O)(=O)N1CCOCC1)C(=O)N1CCC[C@H](N1)C(=O)OCC(C)(C)C2` (racemic) [Compound A194]: the IC50 against KRAS G12C was over 10000 nM.

Consider `CCn1c(-c2cccnc2[C@H](C)OC)c2c3cc(ccc31)-c1csc(n1)C[C@H](NC(=O)[C@H](C(C)C)N(C)C(=O)N1C[C@H]3CCN(C)C[C@H]31)C(=O)N1CCC[C@H](N1)C(=O)OCC(C)(C)C2` (atropisomer, axis not shown) [Compound A517], for which the IC50 at KRAS Q61H fell in the range of 1000 to 10000 nM.

Turning to `CCn1c(-c2cccnc2[C@H](C)OC)c2c3cc(ccc31)-c1cc(O)cc(c1)C[C@H](NS(=O)(=O)C1CC1)C(=O)N1CCC[C@H](N1)C(=O)OCC(C)(C)C2` (racemic) [Compound A196], on KRAS G12C (setting [1]), the IC50 is over 10000 nM.

`CCn1c(-c2cccnc2[C@H](C)OC)c2c3cc(ccc31)-c1csc(n1)C[C@H](NC(=O)[C@H](C(C)C)N1CCC3(CN(C(=O)OC)C3)C1=O)C(=O)N1CCC[C@H](N1)C(=O)OCC(C)(C)C2` (racemic) [Compound A235] showed a half-maximal inhibitory concentration (IC50) against KRAS G12C of over 10000 nM.

As for `CCn1c(-c2cccnc2[C@H](C)OC)c2c3cc(ccc31)-c1cc(O)cc(c1)C[C@H](NS(=O)(=O)c1ccc(O)cc1)C(=O)N1CCC[C@H](N1)C(=O)OCC(C)(C)C2` (racemic) [Compound A195], on KRAS G12C (setting [1]), the half-maximal inhibitory concentration (IC50) is over 10000 nM.

For the compound `CCn1c(-c2cccnc2[C@H](C)OC)c2c3cc(ccc31)-c1csc(n1)C[C@H](NC(=O)[C@H](C(C)C)N(C)C(=O)N1CC(Cc3cnn(C)c3)C1)C(=O)N1CCC[C@H](N1)C(=O)OCC(C)(C)C2` (atropisomer, axis not shown) [Compound A500], the IC50 at NRAS Q61K was 10 to 100 nM; on NRAS Q61R, 10 to 100 nM; with NCI-H358 (K-Ras G12C), under 10 nM.

Consider `CCn1c(-c2cc(N3CCN(C)CC3)cnc2[C@H](C)OC)c2c3cc(ccc31)-c1csc(n1)C[C@H](NC(=O)[C@H](C(C)C)N(C)C(=O)N1CC(OC)C1)C(=O)N1CCC[C@H](N1)C(=O)OCC(C)(C)C2` (atropisomer, axis not shown) [Compound A466], for which the half-inhibitory concentration (IC50) on NRAS Q61K was 10 to 100 nM; on NRAS Q61R, 10 to 100 nM; in the test with NCI-H358 (K-Ras G12C) it was under 10 nM.

Take `CCn1c(-c2cccnc2[C@H](C)OC)c2c3cc(ccc31)-c1csc(n1)C[C@H](NC(=O)[C@H](C(C)C)N(C)C(=O)N1CC[C@@H]1C)C(=O)N1CCC[C@H](N1)C(=O)OCC(C)(C)C2` (atropisomer, axis not shown) [Compound A304]: the IC50 is 10 to 100 nM on NRAS Q61K, 10 to 100 nM on NRAS Q61R and under 10 nM in the test with NCI-H358 (K-Ras G12C).

`CCn1c(-c2cccnc2[C@H](C)OC)c2c3cc(ccc31)-c1csc(n1)C[C@H](NC(=O)[C@H](C(C)C)N(C)C(=O)N1CCC1)C(=O)N1CCC[C@H](N1)C(=O)OCC(C)(C)C2` (atropisomer, axis not shown) [Compound A399]: the IC50 was 10 to 100 nM on NRAS Q61K, 10 to 100 nM at NRAS Q61R and under 10 nM in the test on NCI-H358 (K-Ras G12C).

As for `CCn1c(-c2cccnc2[C@H](C)OC)c2c3cc(ccc31)-c1csc(n1)C[C@H](NC(=O)[C@H](C(C)C)N(C)C(=O)N1CCN(C(C)=O)CC1)C(=O)N1CCC[C@H](N1)C(=O)OCC(C)(C)C2` (atropisomer, axis not shown) [Compound A291], the IC50 is 10 to 100 nM at NRAS Q61K, 10 to 100 nM on NRAS Q61R and under 10 nM in the test on NCI-H358 (K-Ras G12C).

Take `CCn1c(-c2cccnc2[C@H](C)OC)c2c3cc(ccc31)-c1csc(n1)C[C@H](NC(=O)[C@H](C(C)C)N(C)C(=O)N1CCC3(COC3)C1)C(=O)N1CCC[C@H](N1)C(=O)OCC(C)(C)C2` (atropisomer, axis not shown) [Compound A561]: the half-maximal inhibitory concentration (IC50) is 10 to 100 nM at NRAS Q61K, 10 to 100 nM on NRAS Q61R and under 10 nM with NCI-H358 (K-Ras G12C).

Consider `CCn1c(-c2cccnc2[C@H](C)OC)c2c3cc(ccc31)-c1csc(n1)C[C@H](NC(=O)[C@H](C(C)C)N1CCC3(CN(S(C)(=O)=O)C3)C1=O)C(=O)N1CCC[C@H](N1)C(=O)OCC(C)(C)C2` (racemic) [Compound A234], for which the IC50 was over 10000 nM on KRAS G12C (setting [1]), 1000 to 10000 nM at KRAS Q61H and over 10000 nM on NRAS Q61R.

These data come from patent US20230374035A1, “RAS INHIBITORS” (Revolution Medicines, Inc., priority 2019, published 2023).
